Measurements reported in ChEMBL document CHEMBL5252648, “Design, synthesis and bioactivity evaluation of a series of quinazolinone derivatives as potent PI3Kγ antagonist” (Bioorg Med Chem, 2023).
Active and inactive are the calls of the source. The rule behind the calls is not given here.

Key:
[1] = target: Phosphatidylinositol 4,5-bisphosphate 3-kinase catalytic subunit gamma isoform (Homo sapiens, UniProt P48736); assay: Antagonist activity at PI3Kgamma (unknown origin) assessed as inhibition rate at 20 nM using PIP2 as substrate in presence of ATP incubated for 30 to 60 mins by ADP-glo based luminescence assay relative to control; settings: filed as antagonist, time 30-60 min
Sequence of Phosphatidylinositol 4,5-bisphosphate 3-kinase catalytic subunit gamma isoform (P48736 whole entry, looked up, canonical isoform): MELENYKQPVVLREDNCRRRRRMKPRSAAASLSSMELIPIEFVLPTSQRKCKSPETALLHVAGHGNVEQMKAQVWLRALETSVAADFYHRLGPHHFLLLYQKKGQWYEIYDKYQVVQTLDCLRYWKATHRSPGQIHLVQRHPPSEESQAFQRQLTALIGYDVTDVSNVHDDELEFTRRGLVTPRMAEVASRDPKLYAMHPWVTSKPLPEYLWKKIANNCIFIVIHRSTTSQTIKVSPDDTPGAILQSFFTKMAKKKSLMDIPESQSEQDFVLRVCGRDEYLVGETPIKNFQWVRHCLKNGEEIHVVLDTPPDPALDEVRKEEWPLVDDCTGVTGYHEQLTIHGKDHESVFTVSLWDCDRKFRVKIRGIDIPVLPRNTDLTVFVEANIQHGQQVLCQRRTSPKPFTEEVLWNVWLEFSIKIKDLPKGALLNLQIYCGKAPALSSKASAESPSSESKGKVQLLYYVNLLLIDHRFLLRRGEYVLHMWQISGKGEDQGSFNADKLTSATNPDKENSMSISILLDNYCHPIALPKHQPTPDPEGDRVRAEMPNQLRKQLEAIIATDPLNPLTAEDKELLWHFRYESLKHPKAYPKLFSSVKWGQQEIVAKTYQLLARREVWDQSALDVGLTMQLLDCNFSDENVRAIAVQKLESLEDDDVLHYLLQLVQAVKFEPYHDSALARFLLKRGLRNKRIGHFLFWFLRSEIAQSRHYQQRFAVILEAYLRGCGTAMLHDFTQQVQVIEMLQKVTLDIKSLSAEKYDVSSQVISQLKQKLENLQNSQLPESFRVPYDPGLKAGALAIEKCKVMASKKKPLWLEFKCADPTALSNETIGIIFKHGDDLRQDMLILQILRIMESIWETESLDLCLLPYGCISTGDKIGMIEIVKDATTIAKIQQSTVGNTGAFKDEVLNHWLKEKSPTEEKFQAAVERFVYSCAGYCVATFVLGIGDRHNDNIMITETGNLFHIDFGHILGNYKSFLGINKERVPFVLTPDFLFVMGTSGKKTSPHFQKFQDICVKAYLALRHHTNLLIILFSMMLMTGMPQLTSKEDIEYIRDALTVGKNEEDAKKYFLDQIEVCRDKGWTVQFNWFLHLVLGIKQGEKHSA

[2] = target: T1, Phosphatidylinositol 4,5-bisphosphate 3-kinase catalytic subunit delta isoform (Homo sapiens, UniProt O00329); assay: Antagonist activity at PI3Kdelta (unknown origin) using PIP2 as substrate in presence of ATP incubated for 30 to 60 mins by ADP-glo based luminescence assay
T1 sequence (O00329 whole entry): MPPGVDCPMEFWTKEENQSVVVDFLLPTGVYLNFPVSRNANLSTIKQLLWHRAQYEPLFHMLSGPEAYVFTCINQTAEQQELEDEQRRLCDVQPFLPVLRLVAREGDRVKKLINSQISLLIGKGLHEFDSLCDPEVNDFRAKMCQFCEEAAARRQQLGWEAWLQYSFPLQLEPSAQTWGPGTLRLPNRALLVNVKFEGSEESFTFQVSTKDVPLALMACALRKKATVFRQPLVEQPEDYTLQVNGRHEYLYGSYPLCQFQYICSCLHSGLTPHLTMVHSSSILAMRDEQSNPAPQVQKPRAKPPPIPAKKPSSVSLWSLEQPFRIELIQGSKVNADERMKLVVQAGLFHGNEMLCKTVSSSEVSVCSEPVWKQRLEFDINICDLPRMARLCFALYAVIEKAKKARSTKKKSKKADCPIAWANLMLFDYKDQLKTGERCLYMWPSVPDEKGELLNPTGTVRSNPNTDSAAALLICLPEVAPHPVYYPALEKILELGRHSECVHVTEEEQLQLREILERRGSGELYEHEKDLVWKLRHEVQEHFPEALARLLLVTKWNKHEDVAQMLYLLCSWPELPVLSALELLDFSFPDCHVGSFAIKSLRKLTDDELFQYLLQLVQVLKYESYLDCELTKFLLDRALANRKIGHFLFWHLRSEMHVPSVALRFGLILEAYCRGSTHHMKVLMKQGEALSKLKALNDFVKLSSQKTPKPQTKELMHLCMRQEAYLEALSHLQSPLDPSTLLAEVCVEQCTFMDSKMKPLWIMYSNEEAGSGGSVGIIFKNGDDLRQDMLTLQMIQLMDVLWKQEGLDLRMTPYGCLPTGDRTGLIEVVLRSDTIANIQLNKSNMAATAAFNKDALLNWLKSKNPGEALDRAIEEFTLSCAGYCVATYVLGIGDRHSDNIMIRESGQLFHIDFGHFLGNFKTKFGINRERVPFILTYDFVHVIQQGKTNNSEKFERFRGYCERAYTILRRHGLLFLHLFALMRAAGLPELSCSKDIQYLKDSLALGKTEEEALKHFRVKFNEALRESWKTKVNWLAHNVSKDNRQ

[3] = target: Phosphatidylinositol 4,5-bisphosphate 3-kinase catalytic subunit beta isoform (Homo sapiens, UniProt P42338); assay: Antagonist activity at PI3Kbeta (unknown origin) using PIP2 as substrate in presence of ATP incubated for 30 to 60 mins by ADP-glo based luminescence assay
Sequence of Phosphatidylinositol 4,5-bisphosphate 3-kinase catalytic subunit beta isoform (P42338 whole entry, canonical isoform): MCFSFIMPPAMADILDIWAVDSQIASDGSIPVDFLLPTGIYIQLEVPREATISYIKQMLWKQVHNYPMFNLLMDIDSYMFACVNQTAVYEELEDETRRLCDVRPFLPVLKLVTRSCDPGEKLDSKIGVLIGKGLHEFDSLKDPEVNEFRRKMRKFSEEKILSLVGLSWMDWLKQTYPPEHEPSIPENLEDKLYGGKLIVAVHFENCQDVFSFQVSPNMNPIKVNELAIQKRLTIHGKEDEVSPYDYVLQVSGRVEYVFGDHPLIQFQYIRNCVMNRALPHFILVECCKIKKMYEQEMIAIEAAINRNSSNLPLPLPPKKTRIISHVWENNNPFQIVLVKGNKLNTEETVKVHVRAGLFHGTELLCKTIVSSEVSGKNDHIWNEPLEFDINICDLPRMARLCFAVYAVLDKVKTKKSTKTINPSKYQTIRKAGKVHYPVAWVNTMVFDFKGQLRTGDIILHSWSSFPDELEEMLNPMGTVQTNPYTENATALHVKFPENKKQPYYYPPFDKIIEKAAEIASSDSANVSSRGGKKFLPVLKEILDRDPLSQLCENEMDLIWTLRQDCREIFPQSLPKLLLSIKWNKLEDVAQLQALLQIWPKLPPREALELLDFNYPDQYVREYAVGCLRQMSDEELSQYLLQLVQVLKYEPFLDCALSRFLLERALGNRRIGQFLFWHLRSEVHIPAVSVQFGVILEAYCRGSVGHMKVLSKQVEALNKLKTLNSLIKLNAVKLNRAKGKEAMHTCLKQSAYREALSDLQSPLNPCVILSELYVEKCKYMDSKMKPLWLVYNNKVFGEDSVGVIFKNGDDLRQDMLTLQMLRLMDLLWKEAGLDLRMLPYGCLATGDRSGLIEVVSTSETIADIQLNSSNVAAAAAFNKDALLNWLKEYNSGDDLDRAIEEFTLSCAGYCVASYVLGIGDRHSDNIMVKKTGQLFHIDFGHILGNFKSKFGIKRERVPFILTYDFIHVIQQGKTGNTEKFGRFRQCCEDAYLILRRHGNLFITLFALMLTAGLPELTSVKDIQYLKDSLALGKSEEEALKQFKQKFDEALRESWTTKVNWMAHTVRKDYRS

HepG2 = assay: Cytotoxicity against human HepG2 cells assessed as reduction in cell viability incubated for 24 hrs by CCK-8 assay; format: functional, cell-based; settings: HepG2, 24 h
B16-F10 = assay: Cytotoxicity against mouse B16-F10 cells assessed as reduction in cell viability incubated for 24 hrs by CCK-8 assay; format: functional, cell-based; settings: B16-F10, 24 h
Jurkat [4] = assay: Induction of apoptosis against human Jurkat cells assessed as necrotic cells at 0.1 uM measured for 24 hrs by Annexin V-FITC/propidium iodide staining based flow cytometry (reference value: 0.00%); format: functional
Jurkat [5] = assay: Induction of apoptosis against human Jurkat cells assessed as late apoptotic cells at 1 uM measured for 24 hrs by Annexin V-FITC/propidium iodide staining based flow cytometry (reference value: 0.00%); format: functional
Jurkat [6] = assay: Induction of apoptosis against human Jurkat cells assessed as viable cells at 10 uM measured for 24 hrs by Annexin V-FITC/propidium iodide staining based flow cytometry (reference value: 94.2 %); format: functional; settings: read-out: Activity
Jurkat [7] = assay: Induction of apoptosis against human Jurkat cells assessed as early apoptotic cells at 10 uM measured for 24 hrs by Annexin V-FITC/propidium iodide staining based flow cytometry (reference value: 5.76%); format: functional
THP-1 [8] = assay: Induction of apoptosis against human THP-1 cells assessed as viable cells at 0.1 uM measured for 24 hrs by Annexin V-FITC/propidium iodide staining based flow cytometry (reference value: 85.6%); format: functional; settings: read-out: Activity
THP-1 [9] = assay: Induction of apoptosis against human THP-1 cells assessed as late apoptotic cells at 0.1 uM measured for 24 hrs by Annexin V-FITC/propidium iodide staining based flow cytometry (reference value: 3.70%); format: functional
[10] = target: T2, Serine/threonine-protein kinase AKT (Homo sapiens) (UniProt P31751+Q9Y243+P31749); assay: Inhibition of AKT phosphorylation in human THP-1 cells at 1 uM incubated for 1 to 12 hrs by Western blot analysis relative to control; format: cell-based; settings: time 1-12 hrs
T2 sequence (P31749 whole entry, looked up): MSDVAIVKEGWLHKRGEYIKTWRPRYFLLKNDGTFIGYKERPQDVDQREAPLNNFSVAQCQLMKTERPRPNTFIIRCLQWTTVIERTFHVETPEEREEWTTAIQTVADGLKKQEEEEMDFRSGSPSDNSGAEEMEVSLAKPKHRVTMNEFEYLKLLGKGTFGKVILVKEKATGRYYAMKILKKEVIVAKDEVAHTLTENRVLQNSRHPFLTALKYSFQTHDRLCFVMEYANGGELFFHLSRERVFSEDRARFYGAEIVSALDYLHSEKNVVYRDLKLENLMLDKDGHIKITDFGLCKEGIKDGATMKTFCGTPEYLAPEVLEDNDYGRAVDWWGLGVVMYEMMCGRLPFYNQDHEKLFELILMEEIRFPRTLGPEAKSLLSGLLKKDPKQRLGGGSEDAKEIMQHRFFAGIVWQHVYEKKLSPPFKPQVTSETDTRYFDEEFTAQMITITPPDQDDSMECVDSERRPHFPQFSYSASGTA
T2 sequence (P31751 whole entry, looked up): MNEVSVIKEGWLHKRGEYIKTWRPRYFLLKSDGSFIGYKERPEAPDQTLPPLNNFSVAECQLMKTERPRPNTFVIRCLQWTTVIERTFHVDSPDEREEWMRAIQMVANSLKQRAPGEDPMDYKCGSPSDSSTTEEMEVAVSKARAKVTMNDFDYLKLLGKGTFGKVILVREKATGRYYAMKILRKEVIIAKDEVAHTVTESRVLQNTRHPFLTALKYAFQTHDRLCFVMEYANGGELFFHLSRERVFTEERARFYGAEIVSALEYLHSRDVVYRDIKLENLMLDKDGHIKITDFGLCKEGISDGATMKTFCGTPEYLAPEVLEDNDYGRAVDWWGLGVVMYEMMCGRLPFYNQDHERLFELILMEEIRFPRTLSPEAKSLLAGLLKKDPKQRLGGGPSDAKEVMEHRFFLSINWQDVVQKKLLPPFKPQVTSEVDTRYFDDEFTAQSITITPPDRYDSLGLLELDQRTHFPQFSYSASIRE
T2 sequence (Q9Y243 whole entry, looked up): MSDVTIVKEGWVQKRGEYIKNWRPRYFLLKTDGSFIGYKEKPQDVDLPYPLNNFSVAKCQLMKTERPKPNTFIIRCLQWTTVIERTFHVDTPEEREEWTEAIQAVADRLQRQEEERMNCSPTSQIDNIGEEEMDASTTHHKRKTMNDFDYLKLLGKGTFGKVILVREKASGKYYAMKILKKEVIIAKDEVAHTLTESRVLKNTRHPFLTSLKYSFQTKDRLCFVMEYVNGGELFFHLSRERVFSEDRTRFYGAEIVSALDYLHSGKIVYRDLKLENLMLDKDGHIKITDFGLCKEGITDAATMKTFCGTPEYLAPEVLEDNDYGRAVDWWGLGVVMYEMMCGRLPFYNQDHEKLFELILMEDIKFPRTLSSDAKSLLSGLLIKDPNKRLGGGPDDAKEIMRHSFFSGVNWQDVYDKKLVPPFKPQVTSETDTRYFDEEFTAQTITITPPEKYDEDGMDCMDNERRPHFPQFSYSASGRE

RAW264.7 [11] = assay: Inhibition of AKT phosphorylation in mouse RAW264.7 cells at 1 uM incubated for 1 to 12 hrs by Western blot analysis relative to control; format: cell-based; settings: time 1-12 hrs
[12] = target: T2, Serine/threonine-protein kinase AKT (Homo sapiens); assay: Inhibition of AKT phosphorylation in human Jurkat cells at 1 uM incubated for 1 to 12 hrs by Western blot analysis relative to control; format: cell-based; settings: time 1-12 hrs
[13] = target: T2, Serine/threonine-protein kinase AKT (Homo sapiens); assay: Inhibition of AKT phosphorylation in human THP-1 cells incubated for 1 to 12 hrs by Western blot analysis relative to control; format: cell-based; settings: dose 0.1-10 µM, time 1-12 hrs
RAW264.7 [14] = assay: Inhibition of AKT phosphorylation in mouse RAW264.7 cells incubated for 1 to 12 hrs by Western blot analysis relative to control; format: cell-based; settings: dose 0.1-10 µM, time 1-12 hrs
[15] = target: T2, Serine/threonine-protein kinase AKT (Homo sapiens); assay: Inhibition of AKT phosphorylation in human Jurkat cells incubated for 1 to 12 hrs by Western blot analysis relative to control; format: cell-based; settings: dose 0.1-10 µM, time 1-12 hrs
Jurkat [16] = assay: Upregulation of phosphorylated ERK1/2 protein expression in human Jurkat cells measured for 3 hrs; format: functional, cell-based; settings: dose 0.1-10 µM
THP-1 [17] = assay: Induction of apoptosis against human THP-1 cells assessed as viable cells at 1 uM measured for 24 hrs by Annexin V-FITC/propidium iodide staining based flow cytometry (reference value: 85.6%); format: functional; settings: read-out: Activity
THP-1 [18] = assay: Induction of apoptosis against human THP-1 cells assessed as late apoptotic cells at 1 uM measured for 24 hrs by Annexin V-FITC/propidium iodide staining based flow cytometry (reference value: 3.70%); format: functional
THP-1 [19] = assay: Induction of apoptosis against human THP-1 cells assessed as necrotic cells at 1 uM measured for 24 hrs by Annexin V-FITC/propidium iodide staining based flow cytometry (reference value: 0.316%); format: functional
THP-1 [20] = assay: Induction of apoptosis against human THP-1 cells assessed as viable cells at 10 uM measured for 24 hrs by Annexin V-FITC/propidium iodide staining based flow cytometry (reference value: 85.6%); format: functional; settings: read-out: Activity
THP-1 [21] = assay: Induction of apoptosis against human THP-1 cells assessed as late apoptotic cells at 10 uM measured for 24 hrs by Annexin V-FITC/propidium iodide staining based flow cytometry (reference value: 3.70%); format: functional

Compound `COc1ccc(C#Cc2cccc3cc(C(C)Nc4ncnc5[nH]cnc45)n(-c4ccccc4)c(=O)c23)cc1` (stereo not drawn) has an inhibition [1] of 53%, an IC50 [2] of 13.1 nM and an IC50 [3] of 109 nM. It also gave an IC50 (HepG2) of over 100000 nM, an IC50 (B16-F10) of over 100000 nM and an Activity (Jurkat [4]) of 0%. For the same compound, the Activity (Jurkat [5]) was 0.042%, the viability at 10 µM (Jurkat [6]) was 30.2% and the Activity (Jurkat [7]) was 69.7%. For the same compound, the viability at 0.1 µM (THP-1 [8]) was 66.8%, the Activity (THP-1 [9]) was 7.85% and the inhibition [10] was “Active”. For the same compound, the inhibition (RAW264.7 [11]) was “Active”, the inhibition [12] was “Active” and the inhibition [13] was “Dose-Dependent Effect”. For the same compound, the inhibition (RAW264.7 [14]) was “Dose-Dependent Effect”, the inhibition [15] was “Dose-Dependent Effect” and the Activity (Jurkat [16]) was “Dose-Dependent Effect”. It also gave a viability at 1 µM (THP-1 [17]) of 59.6%, an Activity (THP-1 [18]) of 4.63% and an Activity (THP-1 [19]) of 0.041%. It also gave a viability at 10 µM (THP-1 [20]) of 60.7% and an Activity (THP-1 [21]) of 14.6%.
